This is an account of results in ChEMBL document CHEMBL4651402, “Screening of ~5500 FDA-approved drugs and clinical candidates for anti-SARS-CoV-2 activity” (2021).

The structures appear in SMILES notation.

The subject of this assay is SARS-CoV-2. Briefly: microbe, parasite or virus in culture. The settings on record: Severe acute respiratory syndrome coronavirus 2, Vero C1008, 48 h.

`CN(C)C1CC(c2ccccc2)c2ccccc21` (stereo not drawn) yielded an IC50 greater than 20 µM. Further, the IC50 (read-out: pIC50 (converted)) was greater than 20 µM.
`NCCOC[C@H](N)C(=O)O`: the IC50 was greater than 20 µM. The IC50 (read-out: pIC50 (converted)) was greater than 20 µM.
Compound `CN1[C@@H]2CC[C@H]1CC(O)C2` (stereo partly drawn) came in with an IC50 greater than 20 µM. Moreover, where the note is “read-out: pIC50 (converted)”, the IC50 is greater than 20 µM.
`CC(C)Nc1ccc(Nc2ccccc2)cc1` returned an IC50 greater than 20 µM. In addition, the IC50 (read-out: pIC50 (converted)) is greater than 20 µM.
On to `COc1ccc2c(c1OC)C(=O)O[C@H]2[C@@H]1c2c(cc3c(c2OC)OCO3)CCN1C`, for which the IC50 was greater than 20 µM. Besides, under “read-out: pIC50 (converted)”, the IC50 is greater than 20 µM.
For the compound `O=c1[nH]c(=O)c2ccccc2o1`, the IC50 is greater than 20 µM. Besides, the IC50 (read-out: pIC50 (converted)) is greater than 20 µM.
The compound `Cc1cccc(Cl)c1NC(=O)CCN1CCC[C@H]2CCC[C@@H]21` came in with an IC50 greater than 20 µM. Further, the IC50 (read-out: pIC50 (converted)) was greater than 20 µM.
`CCN(CC)C(=O)C1(c2ccccc2)CC1CN` (stereo not drawn) gave an IC50 greater than 20 µM. Further, the IC50 (read-out: pIC50 (converted)) is greater than 20 µM.
In the case of `COc1ccccc1N1CCN(CCCNc2cc(=O)n(C)c(=O)n2C)CC1`, the IC50 was greater than 20 µM. Besides, the IC50 (read-out: pIC50 (converted)) was greater than 20 µM.
Compound `O=C(O)c1cc(NC(=O)[C@H](Cc2ccccc2F)NC(=O)c2cc3[nH]cnc3cc2C(=O)NCC2CCCCCC2)cc(C(=O)O)c1` gave an IC50 greater than 20 µM. Moreover, for the setting “read-out: pIC50 (converted)”, the IC50 is greater than 20 µM.
In the case of `O=[N+]([O-])c1ccc(NN=C(c2ccc(O)cc2)c2ccc(O)cc2)c([N+](=O)[O-])c1`, the IC50 is greater than 20 µM. The IC50 (read-out: pIC50 (converted)) was greater than 20 µM.
In turn, `CC(=O)NC(CCC(N)=O)C(=O)O` (stereo not drawn) came in with an IC50 greater than 20 µM. Further, the IC50 (read-out: pIC50 (converted)) is greater than 20 µM.
As to `O=P(O)(O)OCC(O)CO` (stereo not drawn), the IC50 is greater than 20 µM. Also, the IC50 (read-out: pIC50 (converted)) is greater than 20 µM.
With `COc1ccc(C(=O)N2CCCC2=O)cc1`, the IC50 is greater than 20 µM. Besides, the IC50 (read-out: pIC50 (converted)) was greater than 20 µM.
With `Cc1ccnc(N)c1`, the IC50 is greater than 20 µM. In addition, for the setting “read-out: pIC50 (converted)”, the IC50 was greater than 20 µM.
As for `CC1NCCc2cc(O)c(O)cc21` (stereo not drawn), the IC50 is greater than 20 µM. Also, under “read-out: pIC50 (converted)”, the IC50 was greater than 20 µM.
Take `COc1ccc2c(c1)C[C@@H](C)N(CCc1ccc(N)cc1)CC2`: the IC50 was greater than 20 µM. Further, under “read-out: pIC50 (converted)”, the IC50 is greater than 20 µM.
The compound `Cc1cc(C)c2c3ccccc3n(Cc3ccc([C@@H](C(=O)N[C@@H](CO)c4ccccc4)C4CCCC4)cc3)c2n1` gave an IC50 greater than 20 µM. Further, the IC50 (read-out: pIC50 (converted)) is greater than 20 µM.
`CS(=O)(=O)c1ccc([C@@H](O)[C@H](CF)NC(=O)C(Cl)Cl)cc1` registered an IC50 greater than 20 µM. Also, the IC50 (read-out: pIC50 (converted)) is greater than 20 µM.
In turn, `C[C@@H](NCCCCc1ccccc1)[C@@H](O)c1ccc2c(c1)CCS2` had an IC50 greater than 20 µM. For the setting “read-out: pIC50 (converted)”, the IC50 was greater than 20 µM.
In turn, `CC(=O)OC1CCC2(C)C3CC(=O)C4(C)C(C(C)=O)=CCC4C3CC[C@H]2C1` (stereo partly drawn) came in with an IC50 greater than 20 µM. Besides, for the setting “read-out: pIC50 (converted)”, the IC50 was greater than 20 µM.
As for `CC12CCC(=O)C(O)=C1CCC1C2CCC2(C)C1CC[C@]2(C)O` (stereo partly drawn), the IC50 was greater than 20 µM. Also, the IC50 (read-out: pIC50 (converted)) is greater than 20 µM.
The compound `CC(=O)OC1CCC2C3CCC4C/C(=N\Oc5ccc([N+](=O)[O-])cc5)C(Cl)CC4(C)C3CCC12C` (stereo not drawn) had an IC50 greater than 20 µM. In addition, the IC50 (read-out: pIC50 (converted)) was greater than 20 µM.
Regarding `COc1cc(N)c(Cl)cc1C(=O)N[C@H]1CCNC[C@H]1OC`, the IC50 was greater than 20 µM. Moreover, the IC50 (read-out: pIC50 (converted)) is greater than 20 µM.
In the case of `C#CCOC[C@@H]1CO[C@@](Cn2ccnc2)(c2ccc(Cl)cc2Cl)O1`, the IC50 was greater than 20 µM. Further, the IC50 (read-out: pIC50 (converted)) is greater than 20 µM.
`CSCC1CN(/N=C/c2ccc([N+](=O)[O-])o2)C(=O)O1` (stereo not drawn) registered an IC50 greater than 20 µM. For the setting “read-out: pIC50 (converted)”, the IC50 was greater than 20 µM.
In turn, `C=CCN1CCC23c4c5ccc(O)c4OC2C(O)C=CC3C1C5` (stereo not drawn) had an IC50 greater than 20 µM. For the same compound, for the setting “read-out: pIC50 (converted)”, the IC50 was greater than 20 µM.
In the case of `C/C(=N\N=C(/S)N/N=C(\S)Nc1ccccc1Cl)c1ccccn1`, the IC50 is greater than 20 µM. The IC50 (read-out: pIC50 (converted)) is greater than 20 µM.
For `C[C@@H]1[C@@H]2Cc3ccc(O)cc3C1(C)CCN2C`, the IC50 is greater than 20 µM. The IC50 (read-out: pIC50 (converted)) was greater than 20 µM.
